SMILES strings stand for the structures. Where two headings read alike, the source gives them in different places.

The text below walks through data of patent US20140171431A1, “AZOLE HETEROCYCLIC COMPOUND, PREPARATION METHOD, PHARMACEUTICAL COMPOSITION AND USE” (priority 2011, published 2014).

Assay [1] concerns the target T1, Lp-PLA2 in human serum (Homo sapiens, UniProt Q13093).
T1 construct: from tissue
T1 sequence (Q13093 22-441): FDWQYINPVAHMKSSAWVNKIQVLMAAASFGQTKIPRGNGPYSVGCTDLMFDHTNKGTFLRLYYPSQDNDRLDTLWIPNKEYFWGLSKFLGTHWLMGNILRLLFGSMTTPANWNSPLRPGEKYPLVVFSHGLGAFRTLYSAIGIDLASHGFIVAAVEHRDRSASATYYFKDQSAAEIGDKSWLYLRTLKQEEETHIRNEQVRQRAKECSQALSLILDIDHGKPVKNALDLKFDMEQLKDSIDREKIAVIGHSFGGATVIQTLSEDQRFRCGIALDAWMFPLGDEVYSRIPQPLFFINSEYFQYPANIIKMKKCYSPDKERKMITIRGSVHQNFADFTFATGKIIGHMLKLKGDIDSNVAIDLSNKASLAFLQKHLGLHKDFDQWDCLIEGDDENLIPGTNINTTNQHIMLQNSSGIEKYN
Briefly: In vitro inhibitory activity towards the enzyme Lp-PLA2 in human serum, [3H]PAF substrate. The assay is classed as biochemical. The conditions noted are these: 10 nM. The method in brief:
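Human plasma was preincubated with compound 10 min at 37 °C in 50 mM HEPES, 150 mM NaCl, pH 7.4. Reaction started with 20 nM [3H]PAF, run 10 min at 37 °C, then extracted with CHCl3/MeOH (2:1); radioactivity of the supernatant was counted.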

Assay [2] addresses T2, Lp-PLA2 in rabbit serum (Oryctolagus cuniculus, UniProt G1SE06).
T2 construct: from tissue; host or cells: rabbit serum
T2 sequence (G1SE06 22-423): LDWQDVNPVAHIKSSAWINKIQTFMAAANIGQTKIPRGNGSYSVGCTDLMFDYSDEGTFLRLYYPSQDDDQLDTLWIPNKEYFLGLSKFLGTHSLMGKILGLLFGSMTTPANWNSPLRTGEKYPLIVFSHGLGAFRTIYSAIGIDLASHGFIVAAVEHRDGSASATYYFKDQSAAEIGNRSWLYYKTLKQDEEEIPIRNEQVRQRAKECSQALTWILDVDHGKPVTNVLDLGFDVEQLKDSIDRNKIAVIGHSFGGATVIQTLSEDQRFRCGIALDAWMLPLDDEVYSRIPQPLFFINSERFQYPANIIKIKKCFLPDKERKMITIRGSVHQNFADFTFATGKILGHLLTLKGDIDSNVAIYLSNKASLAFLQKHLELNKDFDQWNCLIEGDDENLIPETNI
The assay is described as follows: In vitro inhibitory activity towards the enzyme Lp-PLA2 in rabbit serum, [3H]PAF substrate. The assay is classed as biochemical. The conditions noted are these: 100 nM.

Assay [3] has as its system atherosclerotic plaque. Conditions: diabetic/hypercholesterolemic swine, Wilensky et al.; cited from earlier work.
[4] abbreviates: human serum, read-out: inhibition, %.
[5] abbreviates: read-out: inhibitory rate towards the human serum derived Lp-PLA2 enzyme.
The mark [6] stands for this setting: rabbit serum, read-out: inhibition, %.
The mark [7] stands for this setting: read-out: inhibitory rate towards the rabbit serum derived Lp-PLA2 enzyme.

For the compound `CCN(CC)CCN(C)Cc1onc(Cn2c(SCc3ccc(F)cc3)nc(=O)c3c2CCC3)c1Cc1ccc(-c2ccc(C(F)(F)F)cc2)cc1` [Example 159, 1-((5-(((2-(diethylamino)ethyl)(methyl)amino)methyl)-4-((4′-(trifluoromethyl)biphenyl-4-yl)methyl)isoxazol-3-yl)methyl)-2-(4-fluorobenzylthio)-6,7-dihydro-1H-cyclopenta[d]pyrimidin-4(5H)-one], the inhibition at 0.01 µM in assay [1] (setting [4]) was 100%; in assay [1] (setting [5]), greater than 80%. For the same compound, the inhibition at 0.1 µM in assay [2] (setting [6]) was 97%; in assay [2] (setting [7]), greater than 90%.
For `CN(CCN1CCCCC1)Cc1onc(Cn2c(SCc3ccc(F)cc3)nc(=O)c3c2CCC3)c1Cc1ccc(-c2ccc(C(F)(F)F)cc2)cc1` [Example 161, 2-(4-fluorobenzylthio)-1-((5-((methyl(2-(piperidin-1-yl)ethyl)amino)methyl)-4-((4′-(trifluoromethyl)biphenyl-4-yl)methyl)isoxazol-3-yl)methyl)-6,7-dihydro-1H-cyclopenta[d]pyrimidin-4(5H)-one], the inhibition at 0.01 µM was 100% in assay [1] (setting [4]) and greater than 80% in assay [1] (setting [5]). In addition, the inhibition at 0.1 µM in assay [2] (setting [6]) is 99%; in assay [2] (setting [7]), greater than 90%.
With `CCN(CC)CCN(Cc1ccc(-c2ccc(C(F)(F)F)cc2)cc1)C(=O)Cn1c(SCc2ccc(F)cc2)nc(=O)c2c1CCC2` [darapladib, Darapladib], the atherosclerotic plaque progression entry in assay [3] is listed as “remarkably reduced the atherosclerotic plaque progression”.
